The CheMixHub viscosity set
Where “and” joins values, the source holds several entries; their conditions need not be identical. Equal entries are not always repeated. ± gives the uncertainty stated by the source.

Experiment: xn = mol fraction of the nth substance listed

CCCCCCC(C)O (stereo not drawn) + Brc1ccccc1
viscosity [mPa·s], 101 kPa
Conditions | 298.15 K | 303.15 K
x2 = 0.0495 | 5.76 ± 0.031 | 4.559 ± 0.026
x2 = 0.1184 | 4.748 ± 0.027 | 3.795 ± 0.022
x2 = 0.1814 | 4.027 ± 0.023 | 3.25 ± 0.019
x2 = 0.2506 | 3.367 ± 0.02 | 2.769 ± 0.016
x2 = 0.2943 | 3.034 ± 0.018 | 2.532 ± 0.015
x2 = 0.3711 | 2.576 ± 0.016 | 2.178 ± 0.014
x2 = 0.4297 | 2.285 ± 0.015 | 1.961 ± 0.013
x2 = 0.5077 | 1.983 ± 0.013 | 1.738 ± 0.012
x2 = 0.5834 | 1.766 ± 0.013 | 1.554 ± 0.011
x2 = 0.6524 | 1.587 ± 0.012 | 1.418 ± 0.011
x2 = 0.7315 | 1.41 ± 0.011 | 1.275 ± 0.01
x2 = 0.8025 | 1.3 ± 0.011 | 1.174 ± 0.01
x2 = 0.8722 | 1.192 ± 0.01 | 1.093 ± 0.01
x2 = 0.9483 | 1.107 ± 0.01 | 1.03 ± 0.01

CCCCCCC(C)O (stereo not drawn) + C1CCCCC1
303.15 K, 101.33 kPa
Conditions | viscosity [mPa·s]
x1 = 0.0999 | 0.9208 ± 0.011
x1 = 0.2048 | 1.086 ± 0.013
x1 = 0.303 | 1.317 ± 0.016
x1 = 0.3982 | 1.601 ± 0.019
x1 = 0.4667 | 1.847 ± 0.022
x1 = 0.5235 | 2.072 ± 0.024
x1 = 0.5347 | 2.124 ± 0.025
x1 = 0.6961 | 2.908 ± 0.033
x1 = 0.7992 | 3.516 ± 0.04
x1 = 0.899 | 4.161 ± 0.047

c1c[nH]cn1 + CC(=O)O
101 kPa, x1 = 0.5
Conditions | viscosity [mPa·s]
303.15 K | 54 ± 10
323.15 K | 20

NCCNCCNCCN + CC(C)(N)CO
viscosity [mPa·s], 101 kPa
Conditions | x1 = 0.0971 | x1 = 0.2071 | x1 = 0.289 | x1 = 0.3787 | x1 = 0.4776 | x1 = 0.5872 | x1 = 0.7092 | x1 = 0.8458 | x1 = 0.9205
303.15 K | 93.54 ± 9.4 | 86.24 ± 8.7 | 80.73 ± 8.1 | 74.33 ± 7.5 | 67.05 ± 6.7 | 58.76 ± 5.9 | 49.22 ± 4.9 | 38.21 ± 3.8 | 32.14 ± 3.2
313.15 K | 45.15 ± 4.5 | 42.38 ± 4.2 | 40.21 ± 4 | 37.61 ± 3.8 | 34.58 ± 3.5 | 30.81 ± 3.1 | 26.45 ± 2.6 | 21.3 ± 2.1 | 18.55 ± 1.9
323.15 K | 23.64 ± 2.4 | 22.83 ± 2.3 | 22.02 ± 2.2 | 20.95 ± 2.1 | 19.54 ± 2 | 17.81 ± 1.8 | 15.76 ± 1.6 | 13.05 ± 1.3 | 11.61 ± 1.2

CCCCCCCCCC(=O)O + CC(C)[C@@H]1CC[C@@H](C)C[C@H]1O
viscosity [mPa·s]
Conditions | 293.15 K | 298 K | 298.15 K | 303.15 K | 308.15 K | 313.15 K | 318.15 K | 323.15 K
100 kPa, x1 = 0.333 | 28.37 ± 0.69 | – | 21.15 ± 0.53 | 16.15 ± 0.4 | 12.59 ± 0.31 | 10 ± 0.24 | 8.08 ± 0.19 | 6.63 ± 0.16
100 kPa, x1 = 0.4 | 24.68 ± 0.23 | – | 18.85 ± 0.17 | 14.7 ± 0.14 | 11.68 ± 0.11 | 9.43 ± 0.09 | 7.73 ± 0.07 | 6.42 ± 0.06
100 kPa, x1 = 0.5 | 22 ± 2.2 | – | 17.5 ± 1.8 | 13.5 ± 1.4 | 11 ± 1.1 | 9 ± 0.9 | 7.5 ± 0.8 | 6.3 ± 0.6
101 kPa, x2 = 0.333 | – | 16.3 ± 0.7 | – | – | – | – | – | –

c1ccncc1 + CC(O)CO
101 kPa
Conditions | viscosity [mPa·s]
293.15 K, x1 = 0.2999 | 15.55 ± 0.07
303.15 K, x1 = 0.8 | 1.425 ± 0.0099
308.15 K, x1 = 0.7001 | 1.795 ± 0.011
318.15 K, x1 = 0.4 | 3.855 ± 0.018

c1ccncc1 + CCC(C)=O
100 kPa
Conditions | viscosity [mPa·s]
308.15 K, x1 = 0.1006 | 0.3835 ± 0.0061
313.15 K, x1 = 0.597 | 0.5265 ± 0.0074
323.15 K, x1 = 0.4004 | 0.4095 ± 0.0063

CCOC(=O)C(Br)CC (stereo not drawn) + CCCCCC
303.15 K, 101 kPa
Conditions | viscosity [mPa·s]
x1 = 0.1972 | 0.3726 ± 0.0047
x1 = 0.3889 | 0.5074 ± 0.0051
x1 = 0.4924 | 0.6029 ± 0.0055
x1 = 0.5981 | 0.7246 ± 0.0059
x1 = 0.7949 | 1.032 ± 0.0071

CCCCCCC(C)O (stereo not drawn) + CCCCCCCC
298.15 K, 101 kPa
Conditions | viscosity [mPa·s]
x2 = 0.0487 | 5.956 ± 0.057
x2 = 0.1002 | 5.301 ± 0.049
x2 = 0.1498 | 4.654 ± 0.043
x2 = 0.2006 | 3.998 ± 0.036
x2 = 0.2516 | 3.364 ± 0.029
x2 = 0.3003 | 2.796 ± 0.024
x2 = 0.3538 | 2.228 ± 0.019
x2 = 0.4003 | 1.79 ± 0.015
x2 = 0.4466 | 1.411 ± 0.012
x2 = 0.5001 | 1.049 ± 0.01
x2 = 0.5517 | 0.778 ± 0.009
x2 = 0.6002 | 0.59 ± 0.008
x2 = 0.6539 | 0.454 ± 0.007
x2 = 0.6994 | 0.39 ± 0.007
x2 = 0.7449 | 0.366 ± 0.007
x2 = 0.8 | 0.376 ± 0.007
x2 = 0.8465 | 0.402 ± 0.007
x2 = 0.9003 | 0.434 ± 0.007
x2 = 0.9521 | 0.441 ± 0.007

CCCCCCC(C)O (stereo not drawn) + CCCCCCCCCCCC
298.15 K, 101 kPa
Conditions | viscosity
x1 = 0.0003 | 1.337 ± 0.011 mPa·s
x2 = 0.0554 | 5.513 ± 0.051 mPa·s and 5.51 ± 0.07 mPa·s
x2 = 0.0999 | 4.916 ± 0.045 mPa·s and 4.92 ± 0.07 mPa·s
x2 = 0.1554 | 4.254 ± 0.037 mPa·s and 4.25 ± 0.07 mPa·s
x2 = 0.1998 | 3.786 ± 0.032 mPa·s and 3.79 ± 0.06 mPa·s
x2 = 0.2555 | 3.272 ± 0.027 mPa·s and 3.27 ± 0.06 mPa·s
x2 = 0.2998 | 2.916 ± 0.023 mPa·s and 2.92 ± 0.06 mPa·s
x2 = 0.3554 | 2.532 ± 0.02 mPa·s and 2.53 ± 0.06 mPa·s
x2 = 0.3998 | 2.27 ± 0.018 mPa·s and 2.27 ± 0.06 mPa·s
x2 = 0.4554 | 1.995 ± 0.015 mPa·s and 2 ± 0.06 mPa·s
x2 = 0.4999 | 1.813 ± 0.014 mPa·s and 1.81 ± 0.06 mPa·s
x2 = 0.5555 | 1.627 ± 0.013 mPa·s and 1.63 ± 0.06 mPa·s
x2 = 0.5998 | 1.508 ± 0.012 mPa·s and 1.51 ± 0.06 mPa·s
x2 = 0.6555 | 1.391 ± 0.011 mPa·s and 1.39 ± 0.06 mPa·s
x2 = 0.6998 | 1.32 ± 0.011 mPa·s and 1.32 ± 0.06 mPa·s
x2 = 0.7554 | 1.253 ± 0.01 mPa·s and 1.25 ± 0.06 mPa·s
x2 = 0.7998 | 1.213 ± 0.01 mPa·s and 1.21 ± 0.06 mPa·s
x2 = 0.8555 | 1.176 ± 0.01 mPa·s and 1.18 ± 0.06 mPa·s
x2 = 0.8999 | 1.152 ± 0.01 mPa·s and 1.15 ± 0.06 mPa·s
x2 = 0.9555 | 1.124 ± 0.009 mPa·s and 1.12 ± 0.06 mPa·s

CCCCCCC(C)O (stereo not drawn) + CCCCCCCCCCCCCC
298.15 K, 101 kPa
Conditions | viscosity [mPa·s]
x1 = 0.0003 | 2.081 ± 0.016
x2 = 0.0555 | 5.619 ± 0.052
x2 = 0.0999 | 5.163 ± 0.047
x2 = 0.1555 | 4.632 ± 0.041
x2 = 0.1998 | 4.238 ± 0.037
x2 = 0.2554 | 3.786 ± 0.032
x2 = 0.2998 | 3.455 ± 0.029
x2 = 0.3555 | 3.081 ± 0.025
x2 = 0.3999 | 2.813 ± 0.022
x2 = 0.4554 | 2.519 ± 0.02
x2 = 0.4999 | 2.314 ± 0.018
x2 = 0.5555 | 2.098 ± 0.016
x2 = 0.5998 | 1.957 ± 0.015
x2 = 0.6554 | 1.82 ± 0.014
x2 = 0.7 | 1.741 ± 0.013
x2 = 0.7555 | 1.683 ± 0.013
x2 = 0.8 | 1.668 ± 0.013
x2 = 0.8555 | 1.688 ± 0.013
x2 = 0.9 | 1.736 ± 0.013
x2 = 0.9553 | 1.835 ± 0.014

CCCCCCCCCC(=O)O + CCCCCCCCCCCCCC
100 kPa, x2 = 0.8601
Conditions | viscosity [mPa·s]
298.2 K | 2.37 ± 0.14
308.2 K | 1.9 ± 0.12
318.2 K | 1.54 ± 0.09

CCCCCCCCCC(=O)O + CCCCCCCCCCCCCCC
100 kPa, x2 = 0.8127
Conditions | viscosity [mPa·s]
298.2 K | 2.95 ± 0.18
308.2 K | 2.29 ± 0.14
318.2 K | 1.83 ± 0.11

CCCCCCCCCC(=O)O + CCCCCCCCCCCCCCCC
100 kPa, x2 = 0.6321
Conditions | viscosity [mPa·s]
298.2 K | 4.1 ± 0.25
308.2 K | 3.09 ± 0.19
318.2 K | 2.41 ± 0.15

CCCCCCCCCC(=O)O + CCCCCCCCCCCCCCCCC
100 kPa, x2 = 0.5591
Conditions | viscosity [mPa·s]
298.2 K | 4.83 ± 0.29
308.2 K | 3.6 ± 0.22
318.2 K | 2.77 ± 0.17

O=C(c1ccccc1)c1ccccc1 + CCCCCOC(C)=O
298.15 K, 101 kPa
Conditions | viscosity [mPa·s]
x1 = 0.0417 | 0.8506 ± 0.01
x1 = 0.0472 | 0.8646 ± 0.011

c1c[nH]cn1 + CCCC[N+](CCCC)(CCCC)CCCC.[Br-]
101.3 kPa, x2 = 0.3
Conditions | viscosity [mPa·s]
293.15 K | 810 ± 180
296.15 K | 540 ± 120
303.15 K | 314 ± 66
313.15 K | 144.8 ± 30
323.15 K | 75 ± 15

c1ccncc1 + CCCCn1cc[n+](C)c1.F[B-](F)(F)F
Conditions | viscosity [mPa·s]
298.15 K, 101 kPa, x1 = 0.1059 | 81.9 ± 17

c1ccncc1 + CCCO
101 kPa
Conditions | viscosity [mPa·s]
303.15 K, x1 = 0.2999 | 1.165 ± 0.0092
303.15 K, x1 = 0.5 | 0.9865 ± 0.0088
308.15 K, x1 = 0.2999 | 1.065 ± 0.009
313.15 K, x1 = 0.1001 | 1.205 ± 0.0093
323.15 K, x1 = 0.3998 | 0.7875 ± 0.0084

NCCNCCNCCN + CCO
313.15 K, 100 kPa
Conditions | viscosity [mPa·s]
x1 = 0.02 | 0.94 ± 0.06
x1 = 0.034 | 1.1 ± 0.07
x1 = 0.073 | 1.47 ± 0.09
x1 = 0.17 | 2.67 ± 0.16

c1ccncc1 + CCO
298.15 K, 101 kPa
Conditions | viscosity [mPa·s]
x1 = 0.2992 | 1.034 ± 0.017
x1 = 0.4997 | 0.9591 ± 0.016
x1 = 0.6607 | 0.8792 ± 0.015
x1 = 0.7996 | 0.8773 ± 0.015
